# Source: patent US6710049B2, “Azole compounds as anti-fungal agents” (Ranbaxy Laboratories Limited, priority 2000, dated 2004)
# Key:
# [1] = serum drug concentration after several days of treatment 25 to 100 times above the MIC for C. neoformans; cited from earlier work
# All Candida isolates = assay: Comparative in vitro MIC, isolate panel; type: cell-based
# From the text: (§1) The in-vitro evaluation of the antifungal activity of the compounds can be performed by determining the minimum inhibitory concentration (MIC) as shown in Table 1 which is the concentration of the test compound in Rosewell Park Memorial Institute (RPMI) 1640 liquid medium buffered with 3-(Morpholino)propanesulphonic acid (MOPS) to pH 7, at which there is significant inhibition of the particular fungi. In practice the National Committee for Clinical Laboratory Standard (NCCLS) M27A document for Candida and Cryptococcus and M38P for Aspergillus was used to determine the MIC against yeast and filamentous fungi with suitable modifications for dermatophytes to other filamentous fungi. Three quality control strains were included each time the MIC were determined and readings recorded only when the Quality Control results fell into the acceptable range. After MIC results had been recorded, 100 μl from each of the well showing no growth was spread over Sabouraud Dextrose Agar (SDA) to determine the minimum fungicidal concentration (MFC) as shown in Table 2.
# (§2) A comparative in vitro and in vivo biologically activity data of the compound of our invention, 2-{[1R,2R]-2-(2,4-Difluorophenyl)-2-hydroxy-1-methyl-3-(1H-1,2,4-triazole-1-yl)propyl}-4-[(2′,2′,3′,3′-tetrafluoropropoxyphenyl)-3-(2H,4H)-1,2,4-thiotriazolone (Compound No. 3) with 2-[(1R,2R)-2-(2,4-difluorophenyl)-2-hydroxy-1-methyl-3-(1H-1,2,4-triazol-1-yl)propyl]-4-(2′,2′,3′,3′-tetraflouropropoxyphenyl)-3(2H,4H)-1,2,4-triazolone (TAK 187) and standard antifungal pharmaceuticals is given below: […]
# [2] = tested on: Penicillium spp. isolates; assay: Comparative in vitro MIC, isolate panel; type: cell-based
# From the text: as §1, §2
# [3] = tested on: Aspergillus fumigatus isolates; assay: Comparative in vitro MIC, isolate panel; type: cell-based
# From the text: as §1, §2
# All fungal pathogens = assay: Comparative in vitro MIC, isolate panel; type: cell-based
# From the text: as §1, §2
# Rhizoupus spp. isolates = assay: Comparative in vitro MIC, isolate panel; type: cell-based
# From the text: as §1, §2
# Fusarium spp. isolates = assay: Comparative in vitro MIC, isolate panel; type: cell-based
# From the text: as §1, §2
# All Filamentous isolates = assay: Comparative in vitro MIC, isolate panel; type: cell-based
# From the text: as §1, §2
# T. rubrum = assay: Activity against dermatophytes; type: cell-based; set-up: unit not given here
# From the text: as §1, §2
# T. mentagrophyte = assay: Activity against dermatophytes; type: cell-based; set-up: unit not given here
# From the text: as §1, §2
# [4] = tested on: filamentous species of fungi; assay: Activity against filamentous fungi (statement in words); type: cell-based
# From the text: as §1
# Aspergillus fumigatous = assay: In vivo anti-fungal activity, ED50 in systemically infected mice; set-up: species or system Swiss albino mice; settings: mice infected i.v. with Aspergillus fumigatous, dosing for five days
# Method: The in-vivo evaluation of the compound can be carried out at a series of dose levels by oral or I. V. injection to mice which are inoculated I.V. with the minimum lethal dose of Candida albicans, Cryptococcus neoformans or Aspergillus fumigatus by the tail vein. Activity is based on the survival of a treated group of mice after the death of an untreated group of mice. For Aspergillus and Cryptococcus infections, target organs were cultured after treatment to document the number of mice cured of the infection for further assessment of activity.
# Method: Briefly, Swiss albino mice weighing 20±2 G were injected intravenously (tail vein) with sufficient fungal cells to kill 100% of the untreated animals for Aspergillus fumigatous strain used. In all cases each group comprised of six mice. Five does levels, utilizing doubling dilution range, were employed per determination ranging from 25 to 1.56 mg/kg BW. Dosing was carried out for five days starting after 30 minutes of infection. […] Treated animals were monitored twice daily for 14 days post infection at which time the experiment was terminated and ED50 was calculated.
smiles,measurement,setting,value
CC[C@@H]([C@H](C)O)n1ncn(-c2ccc(N3CCN(c4ccc(OC[C@@H]5CO[C@@](Cn6cncn6)(c6ccc(F)cc6F)C5)cc4)CC3)cc2)c1=O [SCH 56592],detectability in CSF,[1],undetectable
C[C@@H](n1ncn(-c2ccc(OCC(F)(F)C(F)F)cc2)c1=S)[C@](O)(Cn1cncn1)c1ccc(F)cc1F [Compound No. 3],MIC50,All Candida isolates,0.5 µg/mL
same,MIC90,All Candida isolates,1 µg/mL
same,MIC G.M.,All Candida isolates,0.1 µg/mL
same,MIC50,[2],2 µg/mL
same,MIC90,[2],8 µg/mL
same,MIC G.M.,[2],1.516 µg/mL
same,MIC50,[3],0.125 µg/mL
same,MIC90,[3],0.25 µg/mL
same,MIC G.M.,[3],0.112 µg/mL
same,MIC50,All fungal pathogens,0.25 µg/mL
same,MIC90,All fungal pathogens,2 µg/mL
same,MIC G.M.,All fungal pathogens,0.285 µg/mL
same,MIC50,Rhizoupus spp. isolates,0.125 µg/mL
same,MIC90,Rhizoupus spp. isolates,0.125 µg/mL
same,MIC G.M.,Rhizoupus spp. isolates,0.125 µg/mL
same,MIC50,Fusarium spp. isolates,8 µg/mL
same,MIC90,Fusarium spp. isolates,8 µg/mL
same,MIC G.M.,Fusarium spp. isolates,8 µg/mL
same,MIC50,All Filamentous isolates,0.25 µg/mL
same,MIC90,All Filamentous isolates,8 µg/mL
same,MIC G.M.,All Filamentous isolates,0.328 µg/mL
same,Activity against dermatophytes,T. rubrum,0.004
same,Activity against dermatophytes,T. mentagrophyte,0.016
same,activity against clinically important filamentous species of fungi,[4],unexpectedly potent activity
same,fungicidal character,[4]; b38: against some filamentous fungi,fungicidal
same,ED50,Aspergillus fumigatous; Day 7 post infection,2.33 mg/kg body weight
same,ED50,Aspergillus fumigatous; Day 14 post infection,6.25 mg/kg body weight
CN(C/C=C/C#CC(C)(C)C)Cc1cccc2ccccc12 [Terbina],Activity against dermatophytes,T. rubrum,0.016
same,Activity against dermatophytes,T. mentagrophyte,0.002
